# Measurements taken from patent publication US20210353749A1, “GUANABENZ AS AN ADJUVANT FOR IMMUNOTHERAPY” (UNIVERSITÉ CATHOLIQUE DE LOUVAIN, priority 2018, published 2021).
# Experiments:
# [1] = tested on: Mouse TCRP1A CD8+ T cells; assay: CD107 cytotoxicity assay (degranulation assay), mouse T cells; assay type: cell-based; settings: 16 hours
# Method: Mouse TCRP1A CD8^+ T cells: P1A-specific (TCRP1A) CD8^+ T cells were isolated from spleens and lymph nodes of TCRP1A mice using anti-mouse CD8a (Ly-2) MicroBeads (Miltenyi Biotec).
# CD107 cytotoxicity assay (Degranulation assay): TCRP1A CD8^+ T cells were plated at 50,000 cells per well in a 96 U plate with different concentrations of guanabenz and incubated at 37° C. overnight prior to their use in the assay on the next day. On the day of the assay, the culture supernatant was removed from the cells and the cells were washed once with complete medium to remove the drug. The target cells L1210-P1A-B7.1 were added to the wells at a ratio of 1:1. Control wells containing either only T cells or target cells were also included for each plate. CD107a-APC was added to each well at the same time as addition of the target cells. The plate was then incubated at 37° C. for 90 minutes. At the end of the incubation period the cells were harvested and washed once with PBS. They were stained with anti-mouse CD8-Bv421 antibody for 15 minutes. The cells were then washed and resuspended in PBS and analyzed using FACS Fortessa flow cytometer. Human CD8^+ T cell degranulation was evaluated in a similar way. To induce CD8^+ T cell degranulation, T2 cells loaded with synthetic WT1126-134 peptide (10^6 T2 cells were incubated for 1 hour in 200 μL Optimem medium with 100 μmol/L synthetic peptide at 37° C.) were used as target cells.
# T cells were incubated with guanabenz (10, 20, or 40 μM) for 16 h to 24 h as indicated. Mice received a daily intra-peritoneal injection of guanabenz (5 mg/kg) or vehicle (PBS) from the day of randomization (and the day of ACT when applicable) until the day of sacrifice.
# CD107 cytotoxicity assay (Degranulation assay): the assay was carried out as described hereinabove (see Example 1) with different 20 μM guanabenz or different concentrations of alprenolol or sunitinib, as indicated.
# T cells were incubated with 20 μM guanabenz for 16 h as indicated.
# T cells were incubated with alprenolol (5 or 20 μM) for 16 h as indicated. […]
# [2] = tested on: P1A-antigen specific CD8+ T cells; assay: Immunization with irradiated L1210-P1A-B7.1 tumor cells; assay type: in vivo, DBA/2 mice; settings: 100 μg (5 mg/kg) guanabenz with vaccine, vs negative control and immunization alone
# Method: Immunization with irradiated L1210-P1A-B7.1 tumor cells: DBA/2 mice received a vaccine consisting of 1 million irradiated L1210-P1A-B7.1 cells expressing the P1A antigen either alone or with 100 μg (5 mg/kg) guanabenz. When administered, guanabenz was given 1 hour before the immunization and daily after the immunization.
# Tetramer staining: one week after the immunization, the spleen of each mouse was collected. Isolated splenocytes from the immunized mice were cultured and restimulated with L1210-P1A-B7.1 cells at a ratio of 1:1. Four days after restimulation, P1A-antigen specific CD8^+ T cells were stained with PE-conjugated P1A tetramer and APC-conjugated anti-CD8 antibody.
# Interferon gamma secretion: one week after the immunization, the spleen of each mouse was collected. Splenocytes from the immunized mice were restimulated with L1210-P1A-B7.1 cells at a ratio of 1:1. Four days after restimulation, the splenocytes were collected and plated at 50,000 cells per well in 96 U plate. L1210-P1A-B7.1 cells were added to each well as target cells at a ratio of 1:1. The plate was then incubated at 37° C. overnight. At the end of the incubation, the supernatant from the cells were collected and the amount of secreted IFNγ was measured by ELISA according to the manufacturer's instruction (R&D). […]
# Mouse NK cells = assay: In vitro NK cell function (CD107a degranulation); assay type: cell-based; settings: guanabenz 20 μM, 16 hours, RMA-S target cells; FIG. 10
# Method: Mouse NK cells: murine NK cells were isolated from mouse splenocytes using anti-CD49b magnetic beads. Murine NK cells were isolated from mouse splenocytes using anti-CD49b magnetic beads and were activated in vitro by co-incubation with irradiated RMA-S cells. 4 days after activation, they were collected and plated at 50,000 cells per well in a 96 U plate with 20 μM of guanabenz and incubated at 37° C. overnight prior to their use in the assay on the next day. On the day of the assay, the culture supernatant was removed from the cells and the cells were washed once with complete medium to remove the drug. The target cells (RMA-S cells) were added to the wells at a ratio of 1:1. Control wells containing either only NK cells or target cells were also included for each plate. CD107a-APC was added to each well at the same time as addition of the target cells. The plate was then incubated at 37° C. for 90 minutes. At the end of the incubation period the cells were harvested and washed once with PBS. They were stained with anti-mouse CD49b-PE antibody for 15 minutes. The cells were then washed and resuspended in PBS and analyzed using FACS Fortessa flow cytometer.
smiles,measurement,setting,value
"NC(N)=N/N=C/c1c(Cl)cccc1Cl [guanabenz, 2-[(E)-(2,6-dichlorophenyl)methylideneamino]guanidine]",T cell degranulation (FACS detection of CD107a),"[1]; guanabenz 20 μM, vs control, FIG. 12A",did significantly increase
same,T cell degranulation (FACS detection of CD107a),"[1]; guanabenz 10, 20 or 40 μM, co-culture with L1210-P1A-B7.1 target cells, FIG. 1A",increased
same,splenocyte IFNγ secretion (ELISA),"[2]; activation with L1210-P1A-B7.1 cells, FIG. 7B",significant increase
same,percentage of P1A-antigen specific CD8+ T cells among total CD8+ T cells after restimulation with the P1A-antigen,"[2]; splenocytes one week after immunization, FIG. 7A",significant increase
same,NK cell degranulation (FACS detection of CD107a),Mouse NK cells,significantly increased
